According to ChEMBL document CHEMBL1201862, “PubChem BioAssay data set” (2004):
Calls of active or inactive are those of the source.

Tests used:
P388/ADR = test: cells; format: functional; conditions: Mus musculus
SN12K1 = test: cells; format: functional; conditions: Homo sapiens
P388 = test: cells; format: functional; conditions: Mus musculus
[1] = target: Peroxisome proliferator-activated receptor gamma/Nuclear receptor coactivator 1 (Homo sapiens, UniProt P37231); test: (§1) TR-FRET dose response biochemical High Throughput Screening assay for agonists of the steroid receptor coactivator 1 (SRC-1) recruitment by the peroxisome proliferator-activated receptor gamma (PPAR gamma): non-selective agonists. [Related pubchem assays (depositor defined):AID1300, AID1808, AID504735, AID631]; format: protein assay
[2] = target: Peroxisome proliferator-activated receptor gamma/Nuclear receptor coactivator 3 (Homo sapiens, UniProt P37231); test: as §1, with “3 (SRC-3)” for “1 (SRC-1)”, “assays: 1301 (Confirmation screen.), 1048 (Primary screen.)]” for “assays (depositor defined):AID1300, AID1808, AID504735, AID631]”; format: functional
[3] = target: Peroxisome proliferator-activated receptor gamma/Nuclear receptor coactivator 2 (Homo sapiens, UniProt P37231); test: TR-FRET dose response biochemical High Throughput Screening assay for agonists of the steroid receptor coactivator 2 (SRC-2) recruitment by the peroxisome proliferator-activated receptor gamma (PPAR gamma): non-selective agonists. [Related pubchem assays: 1297, 1032 ]; format: functional
Vero [4] = test: cells; format: functional, cell-based; conditions: Chlorocebus sabaeus
Vero [5] = test: cells; format: functional; conditions: Chlorocebus sabaeus
[6] = target: T1, Endoribonuclease toxin MazF (Escherichia coli K-12, UniProt P0AE70); test: activation of MazEF endoribonuclease cleavage – biochemical, fluorescence, single-stranded RNA substrate, uHTS hits, dose response (AID 588481); format: functional
T1 sequence (P0AE70 whole entry): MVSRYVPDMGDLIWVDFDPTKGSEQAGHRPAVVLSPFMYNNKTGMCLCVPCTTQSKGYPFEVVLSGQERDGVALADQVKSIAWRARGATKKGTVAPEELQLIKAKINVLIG

[7] = target: T1, Endoribonuclease toxin MazF; test: substrate-only fluorescence increase artefacts – biochemical, single-stranded RNase substrate, counter-screen for MazEF activator project, dose response (AID 588502); format: functional
Aminopeptidase N = target: T2, Aminopeptidase N (Plasmodium falciparum FcB1/Columbia, UniProt O96935); test: malaria alanyl aminopeptidase activity blockers – biochemical, fluorogenic H-Leu-NHMec substrate, 1536-well (AID 1445); set-up: species or system Plasmodium falciparum 3D7, 3D7
T2 sequence (O96935 whole entry): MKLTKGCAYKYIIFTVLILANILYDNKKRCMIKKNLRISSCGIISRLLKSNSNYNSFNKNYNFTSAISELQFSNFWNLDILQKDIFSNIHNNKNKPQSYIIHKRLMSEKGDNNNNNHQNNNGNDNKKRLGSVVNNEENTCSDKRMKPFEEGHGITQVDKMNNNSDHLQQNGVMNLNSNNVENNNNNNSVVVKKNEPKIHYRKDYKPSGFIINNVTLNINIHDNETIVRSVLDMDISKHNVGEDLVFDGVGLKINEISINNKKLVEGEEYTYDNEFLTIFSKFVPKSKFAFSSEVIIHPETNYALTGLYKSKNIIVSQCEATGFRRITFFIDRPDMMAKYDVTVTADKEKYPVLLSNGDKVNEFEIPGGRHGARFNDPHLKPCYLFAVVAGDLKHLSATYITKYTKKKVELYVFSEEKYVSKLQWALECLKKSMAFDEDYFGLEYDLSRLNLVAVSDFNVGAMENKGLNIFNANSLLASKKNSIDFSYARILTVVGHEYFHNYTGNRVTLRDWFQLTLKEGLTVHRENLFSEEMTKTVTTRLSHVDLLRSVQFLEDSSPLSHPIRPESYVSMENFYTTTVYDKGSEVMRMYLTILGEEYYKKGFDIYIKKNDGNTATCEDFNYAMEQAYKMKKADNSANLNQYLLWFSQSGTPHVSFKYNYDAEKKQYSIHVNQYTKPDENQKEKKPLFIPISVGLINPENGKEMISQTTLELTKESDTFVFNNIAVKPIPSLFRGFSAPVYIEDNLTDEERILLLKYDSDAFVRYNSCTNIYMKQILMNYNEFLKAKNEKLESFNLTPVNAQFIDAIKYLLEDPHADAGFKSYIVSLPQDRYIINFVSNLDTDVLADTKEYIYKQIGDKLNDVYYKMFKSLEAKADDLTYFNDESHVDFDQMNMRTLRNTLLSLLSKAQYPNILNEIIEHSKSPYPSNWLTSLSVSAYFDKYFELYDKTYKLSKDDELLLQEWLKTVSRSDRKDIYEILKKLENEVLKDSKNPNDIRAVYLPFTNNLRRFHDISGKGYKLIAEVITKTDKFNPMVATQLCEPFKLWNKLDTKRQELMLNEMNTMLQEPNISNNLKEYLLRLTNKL

[8] = tested on: Streptococcus sp. 'group A'; test: Streptococcus pyogenes SK(-)GAS viability under kanamycin – luminescence, BacTiterGlo, confirmation, counter-screen for streptokinase expression inhibitor project, dose response (AID 1900); format: functional, organism-based
Streptokinase A = target: T3, Streptokinase A (Streptococcus pyogenes serotype M1, UniProt P10520); test: viability-normalized secreted streptokinase activity reduction – plasminogen activation absorbance, OD405, dose response (AID 1914); format: functional, Streptococcus pyogenes M1 GAS;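 further: secreted streptokinase activity via plasminogen activation per viability signal from cell pellet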
T3 sequence (P10520 whole entry): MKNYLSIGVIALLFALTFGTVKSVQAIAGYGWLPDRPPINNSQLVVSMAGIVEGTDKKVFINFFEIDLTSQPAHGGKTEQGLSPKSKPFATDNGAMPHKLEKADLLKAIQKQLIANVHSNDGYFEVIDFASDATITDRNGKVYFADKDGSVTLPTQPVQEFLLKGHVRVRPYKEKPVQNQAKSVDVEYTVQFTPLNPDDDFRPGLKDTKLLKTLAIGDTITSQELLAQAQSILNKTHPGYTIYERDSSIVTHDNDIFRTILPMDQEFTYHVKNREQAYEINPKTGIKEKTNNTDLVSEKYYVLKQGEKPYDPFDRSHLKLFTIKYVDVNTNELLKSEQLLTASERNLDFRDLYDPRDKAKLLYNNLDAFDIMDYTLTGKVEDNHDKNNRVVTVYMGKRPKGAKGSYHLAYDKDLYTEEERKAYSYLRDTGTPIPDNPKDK

[9] = target: Induced myeloid leukemia cell differentiation protein Mcl-1 (Homo sapiens, UniProt Q07820); format: functional
Streptococcus = test: GAS UMAA2166 growth inhibition – luminescence, BacTiterGlo, counter-screen for streptokinase expression inhibitor project, dose response (AID 1915); format: functional, organism-based;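 further: potency for reduction of bacterial viability or growth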
[10] = target: Eukaryotic translation initiation factor 4E (Mus musculus, UniProt P63073); test: blockers of eIF4G binding by eIF4E – biochemical, TR-FRET, dose response (AID 855); format: functional;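 further: potency for disrupting eIF4E binding to eIF4GI seen as loss of FRET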
Vero [11] = test: viability of Vero cells under compound – cytotoxicity control for flavivirus capping enzyme inhibitors (AID 588742); format: functional; conditions: Chlorocebus sabaeus
Genome polyprotein = Genome polyprotein (dengue virus type 2, UniProt P29990); test: flavivirus cap methylation enzyme inhibition – biochemical, confirmation dose response, primary screen (AID 588689); format: functional
[12] = target: T4, Small ubiquitin-related modifier 1 (Homo sapiens, UniProt P63165); test: SUMO1 protein interaction blockers, potency – biochemical, fluorescence polarization, uHTS hits, dose response (AID 624382); format: functional; conditions: read-out: IC50_Mean
[13] = target: T4, Small ubiquitin-related modifier 1; test: SUMO1 protein-protein binding blockers, potency – biochemical, FRET, dose response (AID 624383); format: functional; conditions: read-out: IC50_Mean
[14] = target: T5, Apoptotic protease-activating factor 1 (Homo sapiens, UniProt O14727); format: functional
T5 sequence (O14727 whole entry): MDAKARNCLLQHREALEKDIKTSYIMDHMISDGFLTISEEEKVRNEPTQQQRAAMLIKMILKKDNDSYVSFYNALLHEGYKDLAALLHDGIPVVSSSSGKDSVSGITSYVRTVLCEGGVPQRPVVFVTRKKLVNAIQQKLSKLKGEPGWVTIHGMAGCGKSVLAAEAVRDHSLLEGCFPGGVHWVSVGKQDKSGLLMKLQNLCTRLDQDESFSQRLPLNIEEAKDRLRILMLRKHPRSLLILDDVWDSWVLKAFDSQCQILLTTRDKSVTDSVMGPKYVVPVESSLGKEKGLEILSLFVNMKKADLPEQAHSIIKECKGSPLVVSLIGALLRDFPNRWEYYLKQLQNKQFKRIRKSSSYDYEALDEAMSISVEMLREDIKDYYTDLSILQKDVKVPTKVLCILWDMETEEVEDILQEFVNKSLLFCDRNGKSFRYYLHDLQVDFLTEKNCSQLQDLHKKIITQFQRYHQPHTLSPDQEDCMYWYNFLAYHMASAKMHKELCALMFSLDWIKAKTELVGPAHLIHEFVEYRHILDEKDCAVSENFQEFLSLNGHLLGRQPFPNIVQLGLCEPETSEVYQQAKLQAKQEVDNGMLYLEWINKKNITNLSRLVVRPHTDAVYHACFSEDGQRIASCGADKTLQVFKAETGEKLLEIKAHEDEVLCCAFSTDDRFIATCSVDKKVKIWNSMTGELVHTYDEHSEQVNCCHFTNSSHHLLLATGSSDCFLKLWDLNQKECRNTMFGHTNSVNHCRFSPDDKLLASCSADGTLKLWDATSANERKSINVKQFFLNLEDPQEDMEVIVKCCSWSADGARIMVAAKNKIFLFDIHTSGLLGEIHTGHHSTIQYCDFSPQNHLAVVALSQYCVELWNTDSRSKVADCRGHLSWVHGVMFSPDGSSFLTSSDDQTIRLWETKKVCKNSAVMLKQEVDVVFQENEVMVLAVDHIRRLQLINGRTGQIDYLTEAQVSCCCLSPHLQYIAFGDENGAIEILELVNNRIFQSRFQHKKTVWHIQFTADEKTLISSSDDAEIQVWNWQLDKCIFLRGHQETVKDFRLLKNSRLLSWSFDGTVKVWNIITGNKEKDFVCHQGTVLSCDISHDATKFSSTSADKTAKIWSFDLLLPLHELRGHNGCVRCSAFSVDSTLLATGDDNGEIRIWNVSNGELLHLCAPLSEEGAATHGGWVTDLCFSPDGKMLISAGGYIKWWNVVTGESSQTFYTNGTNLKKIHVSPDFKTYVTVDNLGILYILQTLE

INS1 = test: INS-1E survival protection against cytokine death – cell-based, luminescence, retest, dose response (AID 449756); format: functional; conditions: Rattus norvegicus, INS1;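 further: cell death triggered by IL-1 beta plus TNF-alpha plus IFN-gamma mixture; protective hits raise ATP signal compared with cytokine alone wells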

T4 sequence (P63165 whole entry): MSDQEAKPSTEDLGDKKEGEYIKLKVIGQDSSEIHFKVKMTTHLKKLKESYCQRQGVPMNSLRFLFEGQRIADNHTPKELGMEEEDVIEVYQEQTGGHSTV
Chain of Peroxisome proliferator-activated receptor gamma/Nuclear receptor coactivator 3 (P37231 whole entry): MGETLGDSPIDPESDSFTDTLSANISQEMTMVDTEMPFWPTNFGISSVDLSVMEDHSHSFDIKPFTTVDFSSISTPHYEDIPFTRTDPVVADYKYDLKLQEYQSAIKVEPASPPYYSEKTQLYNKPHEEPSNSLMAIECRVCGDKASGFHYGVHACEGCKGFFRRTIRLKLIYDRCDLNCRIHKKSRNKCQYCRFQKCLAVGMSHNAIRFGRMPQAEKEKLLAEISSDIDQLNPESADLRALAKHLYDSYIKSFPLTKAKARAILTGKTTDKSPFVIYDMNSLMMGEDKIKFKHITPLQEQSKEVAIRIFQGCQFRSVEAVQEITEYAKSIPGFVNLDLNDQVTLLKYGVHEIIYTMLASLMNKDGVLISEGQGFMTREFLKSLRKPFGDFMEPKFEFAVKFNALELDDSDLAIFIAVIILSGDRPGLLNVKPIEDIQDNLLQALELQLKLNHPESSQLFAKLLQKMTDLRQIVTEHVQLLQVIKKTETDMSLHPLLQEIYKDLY
Chain of Peroxisome proliferator-activated receptor gamma/Nuclear receptor coactivator 3 (Q9Y6Q9 whole entry, further chain): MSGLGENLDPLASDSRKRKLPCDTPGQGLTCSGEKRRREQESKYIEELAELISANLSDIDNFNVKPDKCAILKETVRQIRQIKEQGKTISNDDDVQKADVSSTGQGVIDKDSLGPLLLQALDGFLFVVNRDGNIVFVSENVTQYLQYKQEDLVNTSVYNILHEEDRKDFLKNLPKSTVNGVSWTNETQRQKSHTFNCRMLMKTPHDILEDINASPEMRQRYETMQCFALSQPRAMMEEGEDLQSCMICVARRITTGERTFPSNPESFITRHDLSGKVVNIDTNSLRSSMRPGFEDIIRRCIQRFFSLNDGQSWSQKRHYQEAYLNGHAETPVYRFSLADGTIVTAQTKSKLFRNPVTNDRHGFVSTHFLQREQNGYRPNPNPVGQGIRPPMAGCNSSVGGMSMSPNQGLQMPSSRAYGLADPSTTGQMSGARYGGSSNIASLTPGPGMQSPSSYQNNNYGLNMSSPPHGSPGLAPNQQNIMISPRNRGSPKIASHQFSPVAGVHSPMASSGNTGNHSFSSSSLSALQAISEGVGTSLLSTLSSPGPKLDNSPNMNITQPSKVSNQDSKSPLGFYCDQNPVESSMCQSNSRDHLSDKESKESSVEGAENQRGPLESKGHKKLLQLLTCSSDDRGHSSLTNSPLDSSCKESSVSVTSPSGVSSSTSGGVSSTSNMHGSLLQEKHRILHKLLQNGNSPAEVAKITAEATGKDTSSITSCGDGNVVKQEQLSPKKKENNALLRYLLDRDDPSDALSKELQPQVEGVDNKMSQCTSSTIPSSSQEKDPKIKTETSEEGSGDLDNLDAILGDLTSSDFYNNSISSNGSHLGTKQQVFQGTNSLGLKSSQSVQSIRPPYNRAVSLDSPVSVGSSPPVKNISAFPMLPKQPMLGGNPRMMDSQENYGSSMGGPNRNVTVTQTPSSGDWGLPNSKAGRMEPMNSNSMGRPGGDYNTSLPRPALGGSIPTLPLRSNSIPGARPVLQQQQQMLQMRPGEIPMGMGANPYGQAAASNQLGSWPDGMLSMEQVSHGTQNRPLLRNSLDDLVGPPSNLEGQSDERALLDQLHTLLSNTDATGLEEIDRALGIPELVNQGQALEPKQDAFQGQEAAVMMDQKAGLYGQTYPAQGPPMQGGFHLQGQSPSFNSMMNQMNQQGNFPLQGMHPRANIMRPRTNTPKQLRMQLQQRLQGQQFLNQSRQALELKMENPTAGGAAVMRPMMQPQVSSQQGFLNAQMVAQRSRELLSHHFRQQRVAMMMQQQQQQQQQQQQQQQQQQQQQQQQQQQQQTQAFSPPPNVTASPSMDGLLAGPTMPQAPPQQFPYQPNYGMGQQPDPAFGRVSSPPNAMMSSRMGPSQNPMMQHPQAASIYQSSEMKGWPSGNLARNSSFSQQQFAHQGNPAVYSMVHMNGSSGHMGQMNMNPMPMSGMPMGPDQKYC
Chain of Peroxisome proliferator-activated receptor gamma/Nuclear receptor coactivator 1 (P37231 whole entry): as the sequence (P37231 whole entry) above
Chain of Peroxisome proliferator-activated receptor gamma/Nuclear receptor coactivator 1 (Q15788 whole entry, further chain): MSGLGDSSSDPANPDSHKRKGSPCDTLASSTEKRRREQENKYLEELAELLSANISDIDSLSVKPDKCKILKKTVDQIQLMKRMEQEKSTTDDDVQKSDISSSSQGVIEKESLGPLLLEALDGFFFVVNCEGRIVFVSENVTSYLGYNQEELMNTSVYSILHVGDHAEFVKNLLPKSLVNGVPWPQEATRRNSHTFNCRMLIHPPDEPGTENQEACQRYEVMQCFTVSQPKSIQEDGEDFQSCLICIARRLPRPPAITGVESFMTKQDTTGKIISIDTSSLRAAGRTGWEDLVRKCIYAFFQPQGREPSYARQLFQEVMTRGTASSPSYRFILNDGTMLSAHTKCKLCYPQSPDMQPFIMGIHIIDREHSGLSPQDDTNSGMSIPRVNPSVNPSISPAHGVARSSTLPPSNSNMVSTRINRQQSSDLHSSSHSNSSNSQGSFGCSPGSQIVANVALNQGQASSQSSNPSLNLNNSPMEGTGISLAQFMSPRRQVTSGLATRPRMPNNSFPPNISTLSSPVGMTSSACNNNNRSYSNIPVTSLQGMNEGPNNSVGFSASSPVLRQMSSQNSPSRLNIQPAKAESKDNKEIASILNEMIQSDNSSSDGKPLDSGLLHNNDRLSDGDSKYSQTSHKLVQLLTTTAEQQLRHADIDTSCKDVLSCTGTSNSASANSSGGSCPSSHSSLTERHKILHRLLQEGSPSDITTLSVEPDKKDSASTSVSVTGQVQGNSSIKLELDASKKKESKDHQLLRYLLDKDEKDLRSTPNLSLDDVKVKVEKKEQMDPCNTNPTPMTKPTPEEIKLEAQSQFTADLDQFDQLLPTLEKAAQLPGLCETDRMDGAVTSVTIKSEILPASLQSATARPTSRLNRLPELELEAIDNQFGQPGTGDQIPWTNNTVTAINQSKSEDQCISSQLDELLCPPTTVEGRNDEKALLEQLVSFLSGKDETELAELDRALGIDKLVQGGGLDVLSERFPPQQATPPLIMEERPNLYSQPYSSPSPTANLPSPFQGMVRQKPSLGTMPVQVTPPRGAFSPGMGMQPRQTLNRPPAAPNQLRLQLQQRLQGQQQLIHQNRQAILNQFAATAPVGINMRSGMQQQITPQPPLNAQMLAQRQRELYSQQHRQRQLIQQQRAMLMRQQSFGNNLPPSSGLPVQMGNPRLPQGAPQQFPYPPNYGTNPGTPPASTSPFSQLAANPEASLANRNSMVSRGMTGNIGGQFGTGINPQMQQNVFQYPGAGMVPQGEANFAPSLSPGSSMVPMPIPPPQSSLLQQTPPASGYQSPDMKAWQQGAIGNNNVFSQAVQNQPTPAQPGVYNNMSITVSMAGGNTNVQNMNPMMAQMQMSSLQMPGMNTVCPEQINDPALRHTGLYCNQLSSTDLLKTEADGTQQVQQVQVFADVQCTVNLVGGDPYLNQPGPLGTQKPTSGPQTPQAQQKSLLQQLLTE
Chain of Induced myeloid leukemia cell differentiation protein Mcl-1 (Q07820 whole entry): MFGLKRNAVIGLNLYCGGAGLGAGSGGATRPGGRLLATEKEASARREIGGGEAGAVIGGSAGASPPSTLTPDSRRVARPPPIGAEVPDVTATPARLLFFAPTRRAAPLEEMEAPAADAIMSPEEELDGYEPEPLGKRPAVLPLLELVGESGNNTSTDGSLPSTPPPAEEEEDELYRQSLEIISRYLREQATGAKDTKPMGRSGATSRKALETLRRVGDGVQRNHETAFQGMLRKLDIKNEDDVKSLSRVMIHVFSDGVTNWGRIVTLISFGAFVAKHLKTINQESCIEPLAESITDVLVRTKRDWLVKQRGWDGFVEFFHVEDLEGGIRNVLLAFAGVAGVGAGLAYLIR
Chain of Eukaryotic translation initiation factor 4E (P63073 whole entry): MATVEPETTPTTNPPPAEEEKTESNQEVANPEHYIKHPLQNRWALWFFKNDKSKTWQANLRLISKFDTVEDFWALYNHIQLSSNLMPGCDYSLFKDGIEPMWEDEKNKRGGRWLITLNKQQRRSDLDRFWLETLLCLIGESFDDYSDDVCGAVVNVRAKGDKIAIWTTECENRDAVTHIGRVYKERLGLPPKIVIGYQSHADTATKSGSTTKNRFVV

Compound: ClCCCN1CCN(CCCl)CC1
- GI50 (P388/ADR): 27 µM (inactive)
- GI50 (SN12K1): 109 µM (inactive)
- GI50 (P388): 17.7 µM (inactive)

Compound: CC(C)Sc1oc(-c2ccco2)nc1S(=O)(=O)c1ccccc1
- EC50 [1]: 6.48 µM (active)
- EC50 [2]: > 79.4 µM (not active)
- EC50 [3]: 9.32 µM (active)

Compound: COc1cccc(-c2ccc(NC(=O)C3CCCN(Cc4cnc(C)n4C)C3)cc2)c1 (stereo not drawn)
- IC50 (Vero [4]): 20.3 µM (active)
- CC50 (Vero [5]): > 25 µM (active)

Compound: N#C/C(=C/C1=C(N2CCOCC2)C(=C/c2cccc([N+](=O)[O-])c2)/CC1)C(=O)Nc1ccccc1F
- EC50 [6]: > 99 µM (inactive)
- EC50 [7]: > 99 µM (inactive)

Compound: ClCc1csc(-c2ccccc2Cl)n1
- EC50 [1]: > 79.4 µM (inactive)
- EC50 [2]: > 79.4 µM (not active)
- EC50 [3]: > 79.4 µM (not active)

Compound: CCN1C(=O)/C(=C\c2ccc(-c3ccc([N+](=O)[O-])cc3OC)o2)S/C1=N\c1cccc(C(=O)O)c1
- IC50 (Aminopeptidase N): 2.2 µM (active)
- EC50 [8]: 3.17 µM (active)
- EC50 (Streptokinase A): > 150 µM (not active)
- IC50 [9]: 6.7 µM (active)
- EC50 (Streptococcus): 8.58 µM (active)
- IC50 [10]: 50 µM (inactive)
- CC50 (Vero [11]): > 40 µM (active)
- IC50 (Genome polyprotein): 64.5 µM (active)
- IC50 [12]: > 66.6 µM (inactive)
- IC50 [13]: 25.8 µM (inactive)

Compound: CCN1CCN(C2=C(NS(=O)(=O)c3ccccc3)C(=O)c3ccccc3C2=O)CC1
- CC50 (Vero [11]): 24.8 µM (active)
- IC50 [14]: 19.1 µM (active)
- AC50 (INS1): 5.62 µM (active)

Compound: CCCn1c(SCC(=O)Nc2nc3ccccc3s2)nc2c1c(=O)n(C)c(=O)n2C
- EC50 [6]: > 99 µM (inactive)
- EC50 [7]: > 99 µM (inactive)
